Read-outs that look alike come from different tables or passages of the source.
Experiments:
[1] = biological target: human phosphodiesterase-5 (PDE5 enzyme isolated from human platelets) (Homo sapiens (Human), UniProt O76074); experiment: PDE5 assay: formation of 5′GMP from cGMP (SPA)
Method: Evaluation of the effects of compounds of the present invention on the activity of the human phosphodiesterase-5 quantified by measuring the formation of 5′GMP from cGMP using PDE5 enzyme isolated from human platelets.
Thereafter, the reaction is initiated by addition of the enzyme and the mixture is incubated for 60 min at 22° C.
For basal control measurements, the enzyme is omitted from the reaction mixture. Following incubation SPA beads are added. After 20 min at 22° C. under shaking, the amount of [3H]5′GMP is quantified with a scintillation counter (Topcount, Packard).
The standard inhibitory reference compound is dipyridamole, which is tested in each experiment at several concentrations to obtain an inhibition curve from which its IC50 value is calculated.

[2] = test system: phenylephrine-precontracted rat aortic rings; experiment: Isometric tension studies: relaxation of phenylephrine-precontracted rat aortic rings; settings: for IC40: concentration where 40% relaxation was achieved; for EC50 / Emax: Rattus norvegicus
Method: After 1 week of acclimatization, rats were anesthetized. Appropriate depth of anesthesia was determined by the absence of the leg flexor response and the eyelid reflex. Then, the thorax was quickly opened by a midline incision, and the rat was sacrificed by cutting the heart and exsanguination.
Indomethacin (1 μM) was added to the saline solution.
Eligible rings were then washed several times to restore tension to the baseline level.
In some experiments, the entire length of the thoracic aorta was functionally denuded of the endothelial layer by gently scraping the luminal surface with a 1.5 mm glass rod. […] Rings were then washed several times to restore tension to the baseline level.
Indomethacin (1 μM) was added to the saline solution. […] Only vessels with at least 60% relaxation to 1 μM ACh from the tension with 300 nM were eligible.
The preparations were allowed to equilibrate for 60 min in Krebs with high glucose (25 mM) before contraction to a new single concentration of PE (300 nM).
Finally, sodium nitroprusside (0.1 mM) was added, in order to obtain maximum relaxation of arterial rings.
The amount of relaxation (percent values as means±SEM) was quantified as percent relaxation from the tension (plateau) achieved with phenylephrine.
Data are presented as mean±SEM. Statistical analysis of results has been performed by analysis of variance (ANOVA) either parametric or non-parametric (Kruskal-Wallis), followed by Bonferroni test or Dunn tests as appropriate (GraphPad Software Inc, San Diego, Calif., USA). Significance was accepted when P<0.05. Non-linear regression was conducted with GraphPad Software).

[3] = test system: human pulmonary artery smooth muscle cells (hPASMC); experiment: Measurements of cGMP in human pulmonary artery smooth muscle cells (hPASMC); type: cell-based; settings: incubation 15 or 30 min; compared with sildenafil
Method: Human Pulmonary Artery Smooth Muscle Cells (hPASMC) were purchased from Clonetics™ Lonza (Lonza, reference number CC-2581) and cultured in Clonetics' smooth muscle growth medium (Clonetics™ SmGM™-2 with BulletKit™ growth factor supplements (Lonza, reference number CC-3182) at 37° C. in 5% CO2. Culture medium was replaced each 48 hours. Cells were grown in 75 cm^2 culture plates.
48 h before the experiments, cells were trypsinized (Trypsin kit One ReagentPack™ (CC-5034), Lonza) and plated in 96 well plates precoated with collagen I at 10000 cells per well. 24 h before the experiments culture medium was replaced by serum-reduced (0.5% FBS) medium.
Measurements of intracellular cGMP were performed using the Amersham cGMP EIA System (GE Healthcare, RPN226) following the instructions of the manufacturer. The assay has a sensitivity of 2 fmol cGMP per well. Briefly, incubations were terminated by adding Amersham's lysis buffer 1 and cells left for 10 min under agitation to ensure complete lysis. cGMP in samples was then acetylated using triethylamine and acetic anhydride and determined by a competitive ELISA. The ELISA is based on the competition between acetylated cGMP in cell culture lysates and a peroxidase-labelled cGMP conjugate for limited binding sites on a cGMP specific antiserum immobilized on pre-coated 96 well MTP. cGMP was determined based on a standard curve. […]

[4] = 5.0E−09M, percent inhibition of the control enzyme activity

For `CCCc1c(C(O)CC(=O)NO)c(C)c2c(=O)[nH]c(-c3cc(S(=O)(=O)N4CCN(C)CC4)ccc3OCC)nn12` (centres unmarked) [Compound 1t, 3-(2-(2-ethoxy-5-((4-methylpiperazin-1-yl)sulfonyl)phenyl)-5-methyl-4-oxo-7-propyl-3,4-dihydropyrrolo[2,1-f][1,2,4]triazin-6-yl)-N,3-dihydroxy propanamide], the “% inhibition at 5.0E−09M” value [1, 4] was 44.9%.

With `CCCc1c(C(O)CC#N)c(C)c2c(=O)[nH]c(-c3cc(S(=O)(=O)N4CCN(C)CC4)ccc3OCC)nn12` (centres unmarked) [Compound 1u, 3-(2-(2-ethoxy-5-((4-methylpiperazin-1-yl)sulfonyl)phenyl)-5-methyl-4-oxo-7-propyl-3,4-dihydropyrrolo[2,1-f][1,2,4]triazin-6-yl)-3-hydroxy propanenitrile] the IC50 [1] was 1.5 nM and the “% inhibition at 5.0E−09M” value [1, 4] was 50.3%.

In the case of `CCCc1c(/C=N/O)c(C)c2c(=O)[nH]c(-c3cc(S(=O)(=O)N4CCC(CCO[N+](=O)[O-])CC4)ccc3OCC)nn12` [Compound 1am, (E)-2-(1-(4-ethoxy-3-(6-((hydroxyimino)methyl)-5-methyl-4-oxo-7-propyl-3,4-dihydropyrrolo[1,2-f][1,2,4]triazin-2-yl)phenylsulfonyl)piperidin-4-yl)ethyl nitrate], the “% inhibition at 5.0E−09M” value [1] is reported as 25.1% and the IC50 [1] is reported as 66 nM.

In the case of `CCCc1c(/C=N/O)c(C)c2c(=O)[nH]c(-c3cc(S(=O)(=O)N4CCC(CCO)CC4)ccc3OCC)nn12` [Compound 1al, (E)-2-(2-ethoxy-5-(4-(2-hydroxyethyl)piperidin-1-ylsulfonyl)phenyl)-5-methyl-4-oxo-7-propyl-3,4-dihydropyrrolo[1,2-f][1,2,4]triazine-6-carbaldehyde oxime], the “% inhibition at 5.0E−09M” value [1, 4] is reported as 84.9%.

For `CCCc1c(/C=N/O)c(C)c2c(=O)[nH]c(-c3cc(S(=O)(=O)N4CCN(CCO[N+](=O)[O-])CC4)ccc3OCC)nn12` [Compound 1af, (E)-2-(4-((4-ethoxy-3-(6-((hydroxyimino)methyl)-5-methyl-4-oxo-7-propyl-3,4-dihydropyrrolo[2,1-f][1,2,4]triazin-2-yl)phenyl)sulfonyl)piperazin-1-yl)ethyl nitrate], the “% inhibition at 5.0E−09M” value [1, 4] was 74.5%.

With `CCCOc1ccc(S(=O)(=O)N2CCC(CCO[N+](=O)[O-])CC2)cc1-c1nn2c(CCC)c(/C=N\O)c(C)c2c(=O)[nH]1` [Compound 1aq, (Z)-2-(1-((3-(6-((hydroxyimino)methyl)-5-methyl-4-oxo-7-propyl-3,4-dihydropyrrolo[2,1-f][1,2,4]triazin-2-yl)-4-propoxyphenyl)sulfonyl)piperidin-4-yl)ethyl nitrate] the “% inhibition at 5.0E−09M” value [1, 4] was 1.3%.

With `CCCOc1ccc(S(=O)(=O)N2CCN(C)CC2)cc1-c1nn2c(CCC)c(/C=N/OC)c(C)c2c(=O)[nH]1` [Compound 1o, (E)-5-methyl-2-(5-((4-methylpiperazin-1-yl)sulfonyl)-2-propoxyphenyl)-4-oxo-7-propyl-3,4-dihydropyrrolo[2,1-f][1,2,4]triazine-6-carbaldehyde O-methyl oxime] the “% inhibition at 5.0E−09M” value [1, 4] was 83.0%.

`CCCc1nn(C)c2c(=O)[nH]c(-c3cc(S(=O)(=O)N4CCN(C)CC4)ccc3OCC)nc12` [sildenafil, reference compound] showed an IC40 ([2]; High Glucose (25 mM)) of 826.989 nM, an IC40 ([2]; Intact Endothelium (E+)) of 0.194 nM and an IC40 ([2]; L-NAME (100 μM)) of 95.659 nM. It also gave an EC50 ([2]; High Glucose (25 mM)) of 20.4 nM, an Emax ([2]; High Glucose (25 mM)) of 49.1% and an EC50 ([2]; Intact Endothelium (E+)) of 0.186 nM. It also gave an Emax ([2]; Intact Endothelium (E+)) of 79.3%, an EC50 ([2]; L-NAME (100 μM)) of 5.8 nM and an Emax ([2]; L-NAME (100 μM)) of 51.4%. The EC50 ([2]; Without Endothelium) was 20.6 nM, the Emax ([2]; Without Endothelium) was 36.4% and the IC40 ([2]; Without Endothelium) was greater than 1000 nM.

`CCCc1c(/C=N/O)c(C)c2c(=O)[nH]c(-c3cc(S(=O)(=O)N4CCN(CCCO)CC4)ccc3OCC)nn12` [Compound 1an, (E)-2-(2-ethoxy-5-(4-(3-hydroxypropyl)piperazin-1-ylsulfonyl)phenyl)-5-methyl-4-oxo-7-propyl-3,4-dihydropyrrolo[1,2-f][1,2,4]triazine-6-carbaldehyde oxime] was tested, and the “% inhibition at 5.0E−09M” value [1, 4] was 84.9%.

For `CCCOc1ccc(S(=O)(=O)N2CCN(CCO)CC2)cc1-c1nn2c(CCC)c(CO)c(C)c2c(=O)[nH]1` [Compound 1n, 2-(5-((4-(2-hydroxyethyl)piperazin-1-yl)sulfonyl)-2-propoxyphenyl)-6-(hydroxymethyl)-5-methyl-7-propylpyrrolo[2,1-f][1,2,4]triazin-4(3H)-one], the “% inhibition at 5.0E−09M” value [1, 4] was 33.0%.

In the case of “(E)-2-(4-(4-ethoxy-3-(6-((methoxyimino)methyl)-5-methyl-4-oxo-7-propyl-3,4-dihydropyrrolo[1,2-f][1,2,4]triazin-2-yl)phenylsulfonyl)piperazin-1-yl)ethyl nitrate [Compound 1ai]”, the “% inhibition at 5.0E−09M” value [1] is reported as 0.3%.

With `CCCOc1ccc(S(=O)(=O)N2CCC(CCO[N+](=O)[O-])CC2)cc1-c1nn2c(CCC)c(/C=N/O)c(C)c2c(=O)[nH]1` [Compound 1v, (E)-2-(1-((3-(6-((hydroxyimino)methyl)-5-methyl-4-oxo-7-propyl-3,4-dihydropyrrolo[2,1-f][1,2,4]triazin-2-yl)-4-propoxyphenyl)sulfonyl)piperidin-4-yl)ethyl nitrate] the “cGMP formation in hPASMC, activity in words” value [3] was “significantly higher activity as compared to the reference inhibitor sildenafil”, the IC40 ([2]; High Glucose (25 mM)) was 0.66 nM and the IC40 ([2]; Intact Endothelium (E+)) was 0.0082 nM. The IC40 ([2]; L-NAME (100 μM)) was 1.412 nM, the EC50 ([2]; High Glucose (25 mM)) was 0.181 nM and the Emax ([2]; High Glucose (25 mM)) was 64.2%. For the same molecule, the EC50 ([2]; Intact Endothelium (E+)) was 0.0111 nM, the Emax ([2]; Intact Endothelium (E+)) was 85.1% and the EC50 ([2]; L-NAME (100 μM)) was 0.267 nM. It also gave an Emax ([2]; L-NAME (100 μM)) of 62%, an EC50 ([2]; Without Endothelium) of 0.218 nM and an Emax ([2]; Without Endothelium) of 48.7%. The “lower concentration for 40% relaxation related to sildenafil” value ([2]; Without Endothelium) was greater than 130 fold, the IC40 ([2]; Without Endothelium) was 7.527 nM and the “more potent relaxation as compared to sildenafil (based on EC50)” value ([2]; absence of endothelium) was “about 95 fold”. The “more potent relaxation as compared to sildenafil (based on EC50)” value ([2]; intact endothelium) was “about 17 fold”, the “relaxation of rat aortic rings, result in words” value ([2]; intact endothelium (FIG. 2A)) was “more potent and effective than Sildenafil” and the “more potent relaxation as compared to sildenafil (based on EC50)” value ([2]; intact endothelium, pre-exposed to high (25 mM) glucose for 60 min) was “about 110 fold”. For the same molecule, the “relaxation of rat aortic rings, result in words” value ([2]; pre-exposed to high glucose (25 mM) (FIG. 2B)) was “clearly more potent and efficacious than 1r”, the “more potent relaxation as compared to sildenafil (based on EC50)” value ([2]; presence of L-NAME) was “about 22 fold” and the “lower concentration for 40% relaxation related to sildenafil” value ([2]; with L-NAME) was roughly 68 fold. For the same molecule, the “lower concentration for 40% relaxation related to sildenafil” value ([2]; with high glucose) was roughly 1250 fold and the “lower concentration for 40% relaxation related to sildenafil” value ([2]; with intact endothelium) was “about 24 fold”.

With `CCCc1c(CO)c(C)c2c(=O)[nH]c(-c3cc(S(=O)(=O)N4CCN(C)CC4)ccc3OCC)nn12` [Compound 1b, 2-(2-ethoxy-5-((4-methylpiperazin-1-yl)sulfonyl)phenyl)-6-(hydroxymethyl)-5-methyl-7-propylpyrrolo[2,1-f][1,2,4]triazin-4(3H)-one] the IC50 [1] was 12 nM and the “% inhibition at 5.0E−09M” value [1, 4] was 34.0%.

`CCCc1c(/C=N/O)c(C)c2c(=O)[nH]c(-c3cc(S(=O)(=O)N4CCN(CCCO[N+](=O)[O-])CC4)ccc3OCC)nn12` [Compound 1ao, (E)-3-(4-(4-ethoxy-3-(6-((hydroxyimino)methyl)-5-methyl-4-oxo-7-propyl-3,4-dihydropyrrolo[1,2-f][1,2,4]triazin-2-yl)phenylsulfonyl)piperazin-1-yl)propyl nitrate] was tested, and the IC50 [1] was 12 nM and the “% inhibition at 5.0E−09M” value [1, 4] was 70.6%.

With `CCCc1c(C=O)c(C)c2c(=O)[nH]c(-c3cc(S(=O)(=O)N4CCN(CCO)CC4)ccc3OCC)nn12` [Compound 1w, 2-(2-ethoxy-5-((4-(2-hydroxyethyl)piperazin-1-yl)sulfonyl)phenyl)-5-methyl-4-oxo-7-propyl-3,4-dihydropyrrolo[2,1-f][1,2,4]triazine-6-carbaldehyde] the “% inhibition at 5.0E−09M” value [1, 4] was 75.5%.

`CCCc1c(/C=N/O)c(C)c2c(=O)[nH]c(-c3cc(S(=O)(=O)N4CCN(C)CC4)ccc3OCC)nn12` [Compound 1a, (E)-2-(2-ethoxy-5-((4-methylpiperazin-1-yl)sulfonyl)phenyl)-5-methyl-4-oxo-7-propyl-3,4-dihydropyrrolo[2,1-f][1,2,4]triazine-6-carbaldehyde oxime] was tested, and the “% inhibition at 5.0E−09M” value [1, 4] was 77.6%.

With “(E)-2-(4-(4-ethoxy-3-(6-((2-hydroxyethoxyimino)methyl)-5-methyl-4-oxo-7-propyl-3,4-dihydropyrrolo[1,2-f][1,2,4]triazin-2-yl)phenylsulfonyl)piperazin-1-yl)ethyl nitrate [Compound 1ak]” the “% inhibition at 5.0E−09M” value [1] was 8.3%.

With `CCCc1cc(C)c2c(=O)[nH]c(-c3cc(S(=O)(=O)N4CCN(CCCO)CC4)ccc3OCC)nn12` [Compound 1ap, 2-(2-ethoxy-5-((4-(3-hydroxypropyl)piperazin-1-yl)sulfonyl)phenyl)-5-methyl-7-propylpyrrolo [2,1-f][1,2,4]triazin-4(3H)-one] the IC50 [1] was 2.8 nM and the “% inhibition at 5.0E−09M” value [1, 4] was 69.2%.
